Data set [1] deals with T1, hERG (hERG1a, Kv11.1) potassium channel (Homo sapiens, UniProt Q12809, F656V).
T1 construct: gene KCNH2

In a further data set the target is T2, zebrafish ERG (zERG) (Danio rerio, UniProt A0A8M1PIE0).
T2 construct: gene kcnh6a
Put plainly: whole-cell patch clamp, current inhibition. Type of data set: cell-based.

In data set [2] the target is T3, hERG (hERG1a, Kv11.1) potassium channel (Homo sapiens, UniProt Q12809).
T3 construct: gene KCNH2; WT hERG1a stably expressed in HEK293 cells
T3 sequence (Q12809 whole entry): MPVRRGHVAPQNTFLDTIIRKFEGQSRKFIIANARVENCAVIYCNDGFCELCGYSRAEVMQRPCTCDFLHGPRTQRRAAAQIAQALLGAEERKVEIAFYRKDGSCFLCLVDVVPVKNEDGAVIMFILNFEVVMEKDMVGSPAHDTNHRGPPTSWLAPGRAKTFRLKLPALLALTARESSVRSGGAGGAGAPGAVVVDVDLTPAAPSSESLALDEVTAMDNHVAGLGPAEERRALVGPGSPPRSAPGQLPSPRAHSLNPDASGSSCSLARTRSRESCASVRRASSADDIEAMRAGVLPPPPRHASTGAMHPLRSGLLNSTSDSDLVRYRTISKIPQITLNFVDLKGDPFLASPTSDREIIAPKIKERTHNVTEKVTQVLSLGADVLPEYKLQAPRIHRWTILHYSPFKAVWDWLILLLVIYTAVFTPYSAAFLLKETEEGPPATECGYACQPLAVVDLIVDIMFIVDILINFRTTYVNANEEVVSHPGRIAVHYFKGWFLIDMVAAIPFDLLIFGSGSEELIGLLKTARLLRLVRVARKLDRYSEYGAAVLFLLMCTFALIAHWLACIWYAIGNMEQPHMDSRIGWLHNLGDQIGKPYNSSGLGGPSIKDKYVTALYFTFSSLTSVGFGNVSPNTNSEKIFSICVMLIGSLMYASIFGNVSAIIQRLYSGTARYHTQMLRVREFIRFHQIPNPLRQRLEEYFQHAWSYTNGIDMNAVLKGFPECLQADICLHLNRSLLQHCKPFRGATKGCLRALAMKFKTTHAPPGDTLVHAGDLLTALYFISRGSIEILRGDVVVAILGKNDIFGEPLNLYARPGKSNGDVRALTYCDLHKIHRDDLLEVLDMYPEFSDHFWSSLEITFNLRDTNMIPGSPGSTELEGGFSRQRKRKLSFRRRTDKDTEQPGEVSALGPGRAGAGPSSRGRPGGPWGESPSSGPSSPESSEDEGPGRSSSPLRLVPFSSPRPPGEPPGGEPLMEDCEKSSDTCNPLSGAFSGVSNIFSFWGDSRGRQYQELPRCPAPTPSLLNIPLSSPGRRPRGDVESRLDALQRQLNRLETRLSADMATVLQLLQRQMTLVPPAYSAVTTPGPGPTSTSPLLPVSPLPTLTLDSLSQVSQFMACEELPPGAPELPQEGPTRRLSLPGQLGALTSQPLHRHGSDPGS
Description: whole-cell patch clamp, tail current inhibition. Type of data set: cell-based. (In general: In patch-clamp work, channel activity is measured electrically.)

Data set [3] concerns the target T4, hERG (hERG1a, Kv11.1) potassium channel (Homo sapiens, UniProt Q12809, Y652A).
T4 construct: gene KCNH2; hERG1a Y652A transiently expressed in HEK293 cells
Put plainly: whole-cell patch clamp, tail current inhibition. The format is cell-based.

Data set [4] addresses T5, hERG (hERG1a, Kv11.1) potassium channel (Homo sapiens, UniProt Q12809, F656T).
T5 construct: gene KCNH2; hERG1a F656T transiently expressed in HEK293 cells
Put plainly: whole-cell patch clamp, tail current block by […]. The format is cell-based.

T2 sequence (A0A8M1PIE0 1-1186): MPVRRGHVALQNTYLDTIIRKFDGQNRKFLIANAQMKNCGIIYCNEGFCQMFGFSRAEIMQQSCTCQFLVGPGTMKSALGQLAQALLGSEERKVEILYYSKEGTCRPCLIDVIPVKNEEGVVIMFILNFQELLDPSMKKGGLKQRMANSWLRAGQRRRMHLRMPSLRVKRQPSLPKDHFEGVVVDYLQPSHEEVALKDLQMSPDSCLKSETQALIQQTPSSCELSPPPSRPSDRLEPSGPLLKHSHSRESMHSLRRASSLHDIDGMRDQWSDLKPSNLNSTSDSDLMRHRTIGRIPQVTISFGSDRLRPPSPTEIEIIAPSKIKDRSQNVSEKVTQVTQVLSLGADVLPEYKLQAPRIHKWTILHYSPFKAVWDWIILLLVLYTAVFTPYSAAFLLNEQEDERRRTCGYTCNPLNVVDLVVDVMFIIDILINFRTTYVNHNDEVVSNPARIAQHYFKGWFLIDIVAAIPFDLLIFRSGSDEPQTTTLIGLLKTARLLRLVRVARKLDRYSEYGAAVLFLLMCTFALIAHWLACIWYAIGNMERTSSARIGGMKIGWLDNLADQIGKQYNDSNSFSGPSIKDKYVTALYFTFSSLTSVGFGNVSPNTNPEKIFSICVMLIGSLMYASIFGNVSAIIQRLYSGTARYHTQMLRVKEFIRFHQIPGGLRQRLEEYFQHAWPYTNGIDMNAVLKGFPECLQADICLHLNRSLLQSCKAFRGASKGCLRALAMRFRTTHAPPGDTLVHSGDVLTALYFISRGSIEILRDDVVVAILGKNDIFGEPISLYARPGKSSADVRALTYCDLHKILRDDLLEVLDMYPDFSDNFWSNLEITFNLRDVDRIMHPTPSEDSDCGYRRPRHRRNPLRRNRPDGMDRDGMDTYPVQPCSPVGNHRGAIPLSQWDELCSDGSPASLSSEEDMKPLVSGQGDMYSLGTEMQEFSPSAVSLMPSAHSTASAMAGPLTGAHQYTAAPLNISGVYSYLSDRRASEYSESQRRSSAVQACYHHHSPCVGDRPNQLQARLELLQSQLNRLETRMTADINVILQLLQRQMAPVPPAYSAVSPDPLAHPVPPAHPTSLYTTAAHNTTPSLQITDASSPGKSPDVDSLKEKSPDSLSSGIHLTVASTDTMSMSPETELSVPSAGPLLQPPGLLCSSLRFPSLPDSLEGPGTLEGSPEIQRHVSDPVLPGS
T4 sequence (Q12809 whole entry Y652A): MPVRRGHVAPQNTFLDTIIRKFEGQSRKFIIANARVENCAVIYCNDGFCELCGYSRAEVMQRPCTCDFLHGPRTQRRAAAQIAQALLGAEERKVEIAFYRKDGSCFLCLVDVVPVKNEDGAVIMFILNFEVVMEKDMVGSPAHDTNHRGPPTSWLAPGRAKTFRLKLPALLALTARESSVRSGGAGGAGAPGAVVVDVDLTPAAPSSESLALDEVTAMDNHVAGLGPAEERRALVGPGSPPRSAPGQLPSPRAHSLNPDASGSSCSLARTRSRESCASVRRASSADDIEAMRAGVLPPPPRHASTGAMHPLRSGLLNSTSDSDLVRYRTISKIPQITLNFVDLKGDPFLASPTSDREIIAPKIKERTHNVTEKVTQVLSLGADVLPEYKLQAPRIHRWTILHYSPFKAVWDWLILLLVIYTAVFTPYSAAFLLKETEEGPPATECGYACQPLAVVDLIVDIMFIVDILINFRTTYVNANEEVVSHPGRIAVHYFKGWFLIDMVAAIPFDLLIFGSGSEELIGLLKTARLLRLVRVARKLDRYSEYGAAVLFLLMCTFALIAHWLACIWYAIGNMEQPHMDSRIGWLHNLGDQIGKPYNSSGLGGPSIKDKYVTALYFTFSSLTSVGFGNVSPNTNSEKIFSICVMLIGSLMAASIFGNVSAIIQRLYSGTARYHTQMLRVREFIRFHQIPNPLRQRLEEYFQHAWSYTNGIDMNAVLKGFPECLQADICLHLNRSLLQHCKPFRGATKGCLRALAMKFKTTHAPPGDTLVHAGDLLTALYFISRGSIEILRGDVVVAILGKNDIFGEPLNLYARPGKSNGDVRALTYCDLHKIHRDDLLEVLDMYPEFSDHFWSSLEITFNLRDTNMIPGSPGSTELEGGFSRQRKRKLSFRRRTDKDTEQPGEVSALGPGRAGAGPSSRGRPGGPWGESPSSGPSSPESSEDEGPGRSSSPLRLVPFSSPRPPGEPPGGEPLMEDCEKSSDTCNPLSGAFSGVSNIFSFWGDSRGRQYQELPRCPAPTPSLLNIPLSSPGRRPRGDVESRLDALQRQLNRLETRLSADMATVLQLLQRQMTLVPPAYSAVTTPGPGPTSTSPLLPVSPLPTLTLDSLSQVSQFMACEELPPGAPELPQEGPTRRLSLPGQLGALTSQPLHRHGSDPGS
T1 sequence (Q12809 whole entry F656V): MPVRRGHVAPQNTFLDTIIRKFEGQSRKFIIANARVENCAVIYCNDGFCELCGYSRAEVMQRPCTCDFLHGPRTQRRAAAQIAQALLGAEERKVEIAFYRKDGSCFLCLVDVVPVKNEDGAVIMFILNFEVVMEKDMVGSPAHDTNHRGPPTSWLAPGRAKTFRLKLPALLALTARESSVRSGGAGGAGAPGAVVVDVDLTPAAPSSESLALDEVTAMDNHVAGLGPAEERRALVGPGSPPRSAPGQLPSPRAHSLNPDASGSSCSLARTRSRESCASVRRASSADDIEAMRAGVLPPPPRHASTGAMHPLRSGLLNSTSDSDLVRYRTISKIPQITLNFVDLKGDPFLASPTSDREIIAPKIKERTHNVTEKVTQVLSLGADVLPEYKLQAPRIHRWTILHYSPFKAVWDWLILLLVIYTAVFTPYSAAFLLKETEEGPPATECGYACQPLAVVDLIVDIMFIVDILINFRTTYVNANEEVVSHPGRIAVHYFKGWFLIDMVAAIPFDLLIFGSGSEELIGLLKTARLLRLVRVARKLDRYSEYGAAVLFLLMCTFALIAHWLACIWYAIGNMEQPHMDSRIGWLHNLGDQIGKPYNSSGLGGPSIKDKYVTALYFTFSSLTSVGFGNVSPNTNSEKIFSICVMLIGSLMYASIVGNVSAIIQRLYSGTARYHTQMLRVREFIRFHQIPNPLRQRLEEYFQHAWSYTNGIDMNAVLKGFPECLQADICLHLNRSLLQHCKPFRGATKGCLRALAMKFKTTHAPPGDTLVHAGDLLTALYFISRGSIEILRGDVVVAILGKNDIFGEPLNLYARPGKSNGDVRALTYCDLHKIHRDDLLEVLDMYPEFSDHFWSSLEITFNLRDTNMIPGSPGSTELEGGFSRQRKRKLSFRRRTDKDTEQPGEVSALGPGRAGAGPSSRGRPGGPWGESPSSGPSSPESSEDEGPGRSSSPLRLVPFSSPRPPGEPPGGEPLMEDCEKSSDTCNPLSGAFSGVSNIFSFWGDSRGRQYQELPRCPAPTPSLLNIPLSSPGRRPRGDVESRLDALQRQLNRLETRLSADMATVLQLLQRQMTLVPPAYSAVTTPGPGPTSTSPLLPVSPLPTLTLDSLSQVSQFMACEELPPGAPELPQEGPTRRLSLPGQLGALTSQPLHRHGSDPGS

Consider `c1ccc2c(c1)ccc1ccccc12` [phenanthrene], for which the “whole-cell patch clamp, tail current block by 30 μM” value in data set [1] is recorded as “also did not impair the inhibitory effect of phenanthrene, showing a trend towards increased block”; in data set [4] it was “this effect was not statistically significantly different from block of WT IhERG”. The IC50 at zebrafish ERG (zERG) amounted to 8.77 ± 0.93 µM; in data set [2], 17.6 ± 1.7 µM; in data set [3], 0.46 ± 0.01 µM.

The term IC50 denotes the concentration at which inhibition is half-maximal.

The values are drawn from publication PMC8629796, “Inhibition of the hERG potassium channel by phenanthrene: a polycyclic aromatic hydrocarbon pollutant” (Cellular and Molecular Life Sciences: CMLS, 2021).
